Experimental data: patent publication US9233933B2, “4,4-disubstituted-1,4-dihydropyrimidines and the use thereof as medicaments for the treatment of hepatitis B” (priority 2012, dated 2016)
Structures can show the parent of a compound that is named as a salt. Where two headings read alike, the source gives them in different places.

Tests used:
[1] = system: HBV; assay: anti-HBV activity in stable transfected HepG2.2.15 cell line, HBV DNA from secreted virions by realtime PCR; format: cell-based, Hepatitis B virus; conditions: HepG2.2.15 cells, 6 days of treatment, secreted virion HBV DNA, read-out: HBV-HepG2 2.15 EC50
[2] = system: HBV; assay: anti HBV activity in HepG2.117 cell line (Tet-off, inducibly HBV producing), intracellular HBV DNA by realtime PCR; format: cell-based, Hepatitis B virus; conditions: HepG2.117 cells, 3 days of treatment, intracellular HBV DNA, read-out: HepG2 117 EC50
[3] = Cytotoxicity in HepG2 cells using CellTiter-Blue, same incubation period as HepG2.2.15 assay; format: cell-based; conditions: human
Method: Cytotoxicity of the compounds was tested in HepG2 cells using CellTiter-Blue, with the same incubation period and dose range as in the HepG2.2.15 assay.

[4] = in vitro; conditions: human, HepG2 4 days CC50
[5] = Cytotoxicity in HepG2 cells incubated 4 days, Resazurin assay; conditions: human, HepG2 4 days CC50, HepG2 cells
[6] = Hepatitis B virus, HepG2.2.15, 144 h
[7] = Hepatitis B virus, HepG2.117, 72 h
[8] = HepG2 cells, 6 days, CellTiter-Blue, read-out: HepG2 6 days CC50

Structure (SMILES) | EC50 [1, 6] | EC50 [2, 7] | CC50 at 6 days ([3]; HepG2 6 days CC50) | CC50 at 4 days [4] | EC50 [1] | EC50 [2] | CC50 at 6 days [3, 8] | CC50 at 4 days [5]
COC(=O)C1=C(CN2CCOCC2)NC(c2ccccn2)=NC12CCc1c(F)cccc12 (racemic) [Compound 66] | 0.207 µM | 0.17 µM | 89.3 µM | > 25 µM | – | – | – | –
COC(=O)C1=C(C)NC(c2nccs2)=NC12C(F)=C(F)c1cc(F)ccc12 (racemic) [Compound 166] | 0.24 µM | 14.2 µM | – | > 25 µM | – | – | – | –
COC(=O)C1=C(C)NC(c2nccs2)=NC12C(F)=Cc1c2ccc(F)c1F (racemic) [Compound 174] | – | 13.4 µM | – | > 25 µM | – | – | – | –
COC(=O)C1=C(CN2CCOCC2)NC(c2ccccn2)=N[C@@]12c1ccc(F)cc1C[C@H]2F (racemic) [Compound 175] | < 0.195 µM | 0.146 µM | – | > 25 µM | – | – | – | –
COC(=O)C1=C(CN2CCOCC2)NC(c2ccccn2)=NC12CCc1c(F)cccc12 (single isomer, unassigned) [Compound 66a] | – | – | > 100 µM | > 100 µM | < 0.391 µM | 0.066 µM | – | –
COC(=O)C1=C(CN2CCOCC2)NC(c2ccccn2)=NC12CCc1ccc(F)cc12 (single isomer, unassigned) [Compound 96a] | – | – | > 100 µM | > 100 µM | 0.65 µM | 0.3 µM | – | –
COC(=O)C1=C(C)NC(c2ncc(F)cc2F)=NC12c1ccccc1OC2(F)F (single isomer, unassigned) [Compound 106a] | – | > 50 µM | > 100 µM | > 50 µM | > 100 µM | – | – | –
COC(=O)C1=C(C)NC(c2ncc(F)cc2F)=NC12CC(C)(C)c1ccccc12 (single isomer, unassigned) [Compound 134a] | – | > 50 µM | 53 µM | > 50 µM | 91.2 µM | – | – | –
COC(=O)C1=C(C)NC(c2nccs2)=NC12C(F)=C(F)c1cc(F)ccc12 (single isomer, unassigned) [Compound 166a] | – | > 25 µM | – | > 25 µM | > 50 µM | – | – | –
COC(=O)C1=C(CN2CCOCC2)NC(c2ccccn2)=NC12c1ccc(F)cc1C(F)C2(F)F (single isomer, unassigned) [Compound 168A] | 9.64 µM | – | – | > 25 µM | – | 3.51 µM | – | –
COC(=O)C1=C(C)NC(c2nccs2)=NC12C(F)=Cc1c2ccc(F)c1F (single isomer, unassigned) [Compound 174a] | – | – | – | > 25 µM | – | 8.97 µM | – | –
COC(=O)C1=C(CN2CCOCC2)NC(c2ccccn2)=NC12CC(=O)c1cc(F)ccc12 (centres unmarked) [139 •TFA] | 0.99 µM | 0.707 µM | – | > 25 µM | – | – | – | –
CCOC(=O)C1=C(CN2CCOCC2)NC(c2ccccn2)=NC12CCc1cc(F)ccc12 (centres unmarked) [Compound 39] | 0.405 µM | 0.41 µM | 62.9 µM | > 100 µM | – | – | – | –
CCOC(=O)C1=C(CN2CCOCC2)NC(c2ccccn2)=NC1(C)c1ccc(F)cc1Cl (centres unmarked) [Compound 41] | 7.39 µM | 4.5 µM | – | – | – | – | > 50 µM | > 25 µM
CCOC(=O)C1=C(CN2CCOCC2)NC(c2ccccn2)=NC1(C)c1ccc(F)cc1F (centres unmarked) [Compound 42] | 3.07 µM | 1.29 µM | – | – | – | – | 57.7 µM | > 50 µM
CCOC(=O)C1=C(CN2CCOCC2)NC(c2ccccn2)=NC12CCC(C)(C)c1ccccc12 (centres unmarked) [Compound 56] | 35.2 µM | 52.6 µM | 36.4 µM | > 100 µM | – | – | – | –
CC1(C)CCC2(N=C(c3ccccn3)NC(CN3CCOCC3)=C2C#N)c2ccccc21 (centres unmarked) [Compound 57] | > 100 µM | > 25 µM | – | – | – | – | 87.4 µM | > 25 µM
N#CC1=C(CN2CCOCC2)NC(c2ccccn2)=NC12CCCc1ccc(F)cc12 (centres unmarked) [Compound 58] | > 100 µM | > 25 µM | – | – | – | – | > 100 µM | > 25 µM

Structure (SMILES) | EC50 [1, 6] | EC50 [2, 7] | CC50 at 6 days ([3]; HepG2 6 days CC50) | CC50 at 4 days [4] | EC50 [1] | EC50 [2] | CC50 at 6 days [3, 8] | CC50 at 4 days [5]
CCOC(=O)C1=C(CN2CCOCC2)NC(c2ccccn2)=NC12CCCc1ccc(F)cc12 (centres unmarked) [Compound 59] | 59.5 µM | 46.7 µM | 68.9 µM | > 100 µM | – | – | – | –
COC(=O)C1=C(CN2CCOCC2)NC(c2ccccn2)=NC12CCC(C)(C)c1ccccc12 (centres unmarked) [Compound 72] | 54 µM | 72 µM | 71.1 µM | > 100 µM | – | – | – | –
COC(=O)C1=C(CN2CCOCC2)NC(c2ccccn2)=NC12CCCc1cc(F)ccc12 (centres unmarked) [Compound 74] | 2.06 µM | 1.33 µM | 78.3 µM | > 100 µM | – | – | – | –
N#CC1=C(CN2CCOCC2)NC(c2ccccn2)=NC12CCc1ccccc12 (centres unmarked) [Compound 76] | 8.48 µM | 3.65 µM | – | – | – | – | > 100 µM | > 100 µM
COC(=O)C1=C(C)NC(c2ncc(F)cc2F)=NC12CCCc1cc(F)ccc12 (centres unmarked) [Compound 80] | – | 25.1 µM | 51.1 µM | > 50 µM | – | – | – | –
COC(=O)C1=C(C)NC(c2ccccn2)=NC12CCOc1ccccc12 (centres unmarked) [Compound 85] | > 100 µM | > 50 µM | > 100 µM | > 50 µM | – | – | – | –
COC(=O)C1=C(CN2CCOCC2)NC(c2ccccn2)=NC12CCOc1ccccc12 (centres unmarked) [Compound 86] | 8.64 µM | 5.49 µM | > 100 µM | > 100 µM | – | – | – | –
COC(=O)C1=C(CN2CCOCC2)NC(c2ccccn2)=NC12CCc1ccccc12 (centres unmarked) [Compound 89] | 0.604 µM | 0.47 µM | > 100 µM | > 100 µM | – | – | – | –
COC(=O)C1=C(C)NC(c2ccccn2)=NC12CCc1ccccc12 (centres unmarked) [Compound 90] | 5.82 µM | 22.7 µM | > 50 µM | > 50 µM | – | – | – | –
COC(=O)C1=C(CN2CCOCC2)NC(c2ncc(F)cc2F)=NC12CC(C)(C)c1ccccc12 (centres unmarked) [Compound 93] | 53.4 µM | 81.2 µM | 41.5 µM | > 100 µM | – | – | – | –
COC(=O)C1=C(CN2CCOCC2)NC(c2ccccn2)=NC12CCc1ccc(F)cc12 (centres unmarked) [Compound 96] | 0.954 µM | 0.94 µM | > 100 µM | 97 µM | – | – | – | –
COC(=O)C1=C(C)NC(c2ncc(F)cc2F)=NC12C(=O)Nc1cc(F)ccc12 (centres unmarked) [Compound 123] | > 100 µM | > 25 µM | – | > 25 µM | – | – | – | –
COC(=O)C1=C(C)NC(c2ncc(F)cc2F)=NC1(C)c1ccc(F)cc1 (centres unmarked) [Compound 128] | 9.1 µM | 2.47 µM | – | – | – | – | 63.8 µM | > 50 µM
COC(=O)C1=C(CN2CCOCC2)NC(c2ccccn2)=NC12CCc1cc(F)ccc12 (centres unmarked) [Compound 143] | – | 0.222 µM | – | > 25 µM | – | – | – | –
COC(=O)C1=C(CN2CCOCC2)NC(c2ccccn2)=NC12CC(O)c1cc(F)ccc12 (centres unmarked) [Compound 144] | – | 4.94 µM | – | > 10 µM | – | – | – | –
COC(=O)C1=C(CN2CCOCC2)NC(c2ccccn2)=NC12C=Cc1cc(F)ccc12 (centres unmarked) [Compound 145] | 0.36 µM | 0.62 µM | – | > 25 µM | – | – | – | –
COC(=O)C1=C(CN2CCOCC2)NC(c2ccccn2)=NC12CC(C)c1cc(F)ccc12 (centres unmarked) [Compound 146] | 1.36 µM | 2.62 µM | – | > 25 µM | – | – | – | –
COC(=O)C1=C(CN2CCOCC2)NC(c2ccccn2)=NC12C(F)=C(F)c1cc(F)ccc12 (centres unmarked) [Compound 169] | – | 0.137 µM | – | > 25 µM | – | – | – | –
